In DBAASP:
In brackets after ≈: the same amount, converted by molar mass. Several values for one entry are separate records, joined by “and”; a condition that tells them apart may be missing. Equal entries are not always repeated. Each block holds one molecule with its values, some of them ahead of it.

How the values were obtained:
Test in all cases: ≥ marks a high value that may be exact or a test limit, other limits are often not marked, values filed in µg/mL are converted to µM
Bacillus cereus = test system: Bacillus cereus
Enterobacter cloacae = test system: Enterobacter cloacae
Enterococcus faecalis = test system: Enterococcus faecalis
Escherichia coli = test system: Escherichia coli
Leuconostoc lactis = test system: Leuconostoc lactis
Listeria innocua = test system: Listeria innocua
Micrococcus luteus = test system: Micrococcus luteus
Pasteurella multocida = test system: Pasteurella multocida
Pseudomonas aeruginosa = test system: Pseudomonas aeruginosa
[1] = test system: Staphylococcus aureus ATCC 25923
[2] = test system: Staphylococcus aureus ATCC 29213
[3] = test system: Staphylococcus epidermidis
Streptococcus uberis = test system: Streptococcus uberis
[4] = test system: Staphylococcus aureus NCTC 10788
[5] = test system: Staphylococcus aureus USA 100
[6] = test system: Bacillus subtilis KCTC 1918
[7] = test system: Candida albicans KCTC 7270
[8] = test system: Escherichia coli ATCC 25922
[9] = test system: Escherichia coli KCTC 1682
[10] = test system: Proteus vulgaris KCTC 2433
[11] = test system: Pseudomonas aeruginosa ATCC 15692
[12] = test system: Pseudomonas aeruginosa KCTC 1637
[13] = test system: Saccharomyces cerevisiae KCTC 7296
[14] = test system: Salmonella typhimurium KCTC 1926
[15] = test system: Staphylococcus aureus KCTC 1621
[16] = test system: Staphylococcus epidermidis KCTC 1917
[17] = test system: Trichosporon beigelii KCTC 7707
[18] = test system: Candida albicans ATCC 90028
[19] = test system: Pseudomonas aeruginosa ATCC 9027
[20] = test system: Staphylococcus aureus USA 300
[21] = test system: Clavibacter michiganensis subsp. michiganensis DSM 46294
[22] = test system: Pectobacterium carotovorum subsp. carotovorum DSM 30168
[23] = test system: Pseudomonas corrugata DSM 7228
[24] = test system: Pseudomonas syringae pv. syringae DSM 10604
[25] = test system: Pseudomonas syringae pv. tomato DC3000
[26] = test system: Xanthomonas vesicatoria DSM 50861
Bacillus subtilis = test system: Bacillus subtilis
[27] = test system: Enterococcus faecalis ATCC 29212
[28] = test system: Klebsiella pneumoniae ATCC 13883
[29] = test system: Pseudomonas aeruginosa ATCC 27853
[30] = test system: Salmonella enterica subsp. enterica serovar Typhimurium ATCC 14028
[31] = test system: Streptococcus pyogenes ATCC 19615
[32] = test system: Candida albicans ATCC 10231
[33] = test system: Pseudomonas aeruginosa ATCC 15422

MIC (Bacillus cereus): 19.1 µM (≈ 50 µg/mL) | MIC (Enterobacter cloacae): ≥ 38.1 µM | MIC (Enterococcus faecalis): ≥ 38.1 µM | MIC (Escherichia coli): > 38.1 µM | MIC (Leuconostoc lactis): 9.53 µM (≈ 25 µg/mL) | MIC (Listeria innocua): 4.57 µM (≈ 12 µg/mL) | MIC (Micrococcus luteus): 4.57 µM (≈ 12 µg/mL) | MIC (Pasteurella multocida): 19.1 µM (≈ 50 µg/mL) | MIC (Pseudomonas aeruginosa): > 38.1 µM | MIC [1]: 4.57 µM (≈ 12 µg/mL) | MIC [2]: 4.57 µM (≈ 12 µg/mL) | MIC [3]: 9.53 µM (≈ 25 µg/mL) | MIC (Streptococcus uberis): 9.53 µM (≈ 25 µg/mL)
SMILES: CC[C@H](C)[C@H](NC(=O)[C@@H](NC(=O)[C@@H]1CCCN1C(=O)[C@@H](NC(=O)[C@@H](NC(=O)[C@H](Cc1cnc[nH]1)NC(=O)[C@@H]1CCCN1C(=O)[C@H](CC(C)C)NC(=O)[C@H](CC(C)C)NC(=O)[C@H](Cc1cnc[nH]1)NC(=O)[C@H](CCCCN)NC(=O)[C@H](C)NC(=O)[C@@H](NC(=O)[C@H](CO)NC(=O)CNC(=O)[C@H](CC(C)C)NC(=O)[C@@H](NC(=O)[C@H](CO)NC(=O)[C@H](Cc1ccccc1)NC(=O)[C@H](CC(C)C)NC(=O)CN)C(C)C)C(C)C)C(C)C)C(C)C)C(C)C)C(=O)N[C@@H](C)C(=O)N[C@@H](CCC(=O)O)C(=O)N[C@@H](CCCCN)C(=O)N[C@@H](CC(C)C)C(N)=O [GLFSVLGSVAKHLLPHVVPVIAEKL]

MIC [4]: ≥ 137 µM
SMILES: CC[C@H](C)[C@H](NC(=O)[C@H](CC(C)C)NC(=O)CNC(=O)[C@H](CC(C)C)NC(=O)[C@@H](N)Cc1ccccc1)C(=O)NCC(=O)N[C@@H](CO)C(=O)N[C@@H](CC(C)C)C(=O)N[C@@H](CC(C)C)C(N)=O [FLGLIGSLL]

MIC [5]: ≥ 100 µM
SMILES: NC(=O)CC[C@H](NC(=O)[C@H](CCCN=C(N)N)NC(=O)[C@@H](N)CCC(N)=O)C(=O)N[C@@H](CCCN=C(N)N)C(N)=O [QRQR]

MIC [6]: 0.39 µM (≈ 0.943 µg/mL) | MIC [7]: 3.13 µM (≈ 7.57 µg/mL) | MIC [8]: 2 µM (≈ 4.83 µg/mL) | MIC [9]: 0.19 µM (≈ 0.459 µg/mL) | MIC [10]: 0.09 µM (≈ 0.218 µg/mL) | MIC [11]: 2 µM (≈ 4.83 µg/mL) | MIC [12]: 1.56 µM (≈ 3.77 µg/mL) | MIC [13]: 1.56 µM (≈ 3.77 µg/mL) | MIC [14]: 0.09 µM (≈ 0.218 µg/mL) | MIC [1]: 4 µM (≈ 9.67 µg/mL) | MIC [15]: 0.39 µM (≈ 0.943 µg/mL) | MIC [16]: 0.39 µM (≈ 0.943 µg/mL) | MIC [17]: 1.56 µM (≈ 3.77 µg/mL)
SMILES: CC[C@H](C)[C@H](NC(=O)[C@H](CCCCN)NC(=O)[C@H](CO)NC(=O)[C@H](Cc1ccccc1)NC(=O)[C@H](CC(C)C)NC(=O)[C@H](CCCCN)NC(=O)[C@@H]1CCCN1C(=O)[C@H](CC(C)C)NC(=O)[C@H](CCCN=C(N)N)NC(=O)[C@H](CCCCN)NC(=O)[C@H](Cc1ccccc1)NC(=O)[C@@H](NC(=O)[C@H](CCCCN)NC(=O)[C@H](CCCCN)NC(=O)[C@H](C)N)C(C)C)C(=O)N[C@@H](Cc1c[nH]c2ccccc12)C(=O)N[C@@H](CC(N)=O)C(=O)N[C@@H](Cc1c[nH]c2ccccc12)C(=O)N[C@@H](CCCCN)C(N)=O [AKKVFKRLPKLFSKIWNWK]

MIC [18]: ≥ 100 µM | MIC [19]: > 100 µM | MIC [5]: ≥ 100 µM | MIC [20]: ≥ 100 µM
SMILES: CSCC[C@H](NC(=O)[C@H](Cc1cnc[nH]1)NC(=O)[C@H](CCCCN)NC(=O)[C@H](CC(C)C)NC(=O)[C@H](CCCCN)NC(=O)[C@@H](N)CCCN=C(N)N)C(=O)N[C@@H](CCCN=C(N)N)C(=O)N[C@@H](Cc1ccccc1)C(=O)O [RKLKHMRF]

MIC [21]: 0.0404 µM (≈ 0.0999 µg/mL) | MIC [22]: 4.04 µM (≈ 10 µg/mL) | MIC [23]: 0.101 µM (≈ 0.25 µg/mL) | MIC [24]: 4.04 µM (≈ 10 µg/mL) | MIC [25]: 4.04 µM (≈ 10 µg/mL) | MIC [26]: 0.0404 µM (≈ 0.0999 µg/mL)
SMILES: CC[C@H](C)[C@H](NC(=O)[C@H](C)NC(=O)[C@H](CCCCN)NC(=O)[C@H](CCCN=C(N)N)NC(=O)[C@H](CCCN=C(N)N)NC(=O)[C@@H](N)CCCCN)C(=O)N[C@@H](CCCCN)C(=O)N[C@H](C(=O)N[C@@H](CC(C)C)C(=O)N[C@@H](CCCCN)C(=O)N[C@@H](CC(C)C)C(=O)N[C@H](C(=O)N[C@@H](C)C(=O)N[C@@H](CCCCN)C(=O)N[C@@H](CC(C)C)C(=O)N[C@H](C(=O)N[C@@H](CCCN=C(N)N)C(=O)N[C@@H](CCCCN)C(=O)N[C@@H](CCCCN)C(=O)N[C@@H](CCCN=C(N)N)C(N)=O)[C@@H](C)CC)[C@@H](C)CC)[C@@H](C)CC [KRRKAIKILKLIAKLIRKKR]

MIC (Bacillus subtilis): ≥ 60 µM | MIC [27]: 70 µM (≈ 130 µg/mL) | MIC (Escherichia coli): 30 µM (≈ 55.5 µg/mL) | MIC [28]: ≥ 70 µM | MIC [29]: 60 µM (≈ 111 µg/mL) | MIC [30]: 80 µM (≈ 148 µg/mL) | MIC [1]: 80 µM (≈ 148 µg/mL) | MIC [31]: ≥ 100 µM
SMILES: CC(C)C[C@H](NC(=O)[C@H](CO)NC(=O)[C@H](CCCN=C(N)N)NC(=O)[C@H](CCCCN)NC(=O)[C@@H](NC(=O)[C@@H](NC(=O)CNC(=O)[C@H](CCCN=C(N)N)NC(=O)[C@H](Cc1cnc[nH]1)NC(=O)[C@H](Cc1c[nH]c2ccccc12)NC(=O)[C@H](Cc1ccccc1)NC(=O)[C@H](Cc1cnc[nH]1)NC(=O)[C@H](Cc1ccc(O)cc1)NC(=O)[C@@H](N)Cc1ccc(O)cc1)C(C)C)[C@@H](C)O)C(=O)O [YYHFWHRGVTKRSL]

MIC [21]: 0.61 µM (≈ 0.999 µg/mL) | MIC [22]: 6.1 µM (≈ 9.99 µg/mL) | MIC [23]: 0.305 µM (≈ 0.5 µg/mL) | MIC [24]: 0.061 µM (≈ 0.0999 µg/mL) | MIC [25]: 0.61 µM (≈ 0.999 µg/mL) | MIC [26]: 0.61 µM (≈ 0.999 µg/mL)
SMILES: CC[C@H](C)[C@H](NC(=O)[C@H](CCCCN)NC(=O)[C@H](Cc1ccccc1)NC(=O)[C@H](CCCCN)NC(=O)[C@H](CCCCN)NC(=O)[C@H](CCCCN)NC(=O)[C@@H](N)CCCN=C(N)N)C(=O)N[C@@H](Cc1ccccc1)C(=O)N[C@@H](CCCCN)C(=O)N[C@@H](CCCN=C(N)N)C(=O)N[C@@H](CC(C)C)C(=O)N[C@@H](Cc1ccccc1)C(N)=O [RKKKFKIFKRLF]

MIC [32]: > 500 µM | MIC [27]: 468 µM and 458 µM and 442 µM | MIC [8]: > 500 µM | MIC [33]: ≥ 500 µM | MIC [16]: ≥ 315 µM
SMILES: CC(C)C[C@H](NC(=O)CNC(=O)[C@H](Cc1ccc(O)cc1)NC(=O)[C@H](Cc1cnc[nH]1)NC(=O)[C@@H]1CCCN1C(=O)[C@H](CC(C)C)NC(=O)[C@H](CCC(=O)O)NC(=O)[C@H](Cc1ccccc1)NC(=O)[C@H](Cc1cnc[nH]1)NC(=O)[C@H](CO)NC(=O)[C@@H](N)CCCCN)C(=O)O [KSHFELPHYGL]
